# Data: patent US6489318B1, “Ethylidene derivatives of tricyclic carbapenems” (LEK, tovarna farmacevtskih in kemicnih izdelkov, d.d., priority 1996, dated 2002)
# Tested on: β-lactamase of Escherichia coli 3.5.2.6
# Assay: Hydrolysis of nitrocefin with β-lactamase in the presence of inhibitors (spectrophotometric, 495 nm)
# Assay type: biochemical
# Settings: substrate nitrocefin 190 μmole/l; inhibitor 10 μmole/l
# Method: Determination of inhibitory action of the compounds of the formula I upon the enzyme β-lactamase
# The inhibitory action of the compounds of the formula I was determined according to standard methodology (Bush, K. and Sykes, R. B. Methods of Enzymatic Analysis, Third Edition, Vol. 4, p. 280, Verlag Chemie GmbH, Weinheim, 1984). The method comprises a spectrophotometric quantitative (band at 495 nm) measurement of catalytic action of the enzyme β-lactamase from the E. coli EC 3.5.2.6 strain. As a substrate nitrocefin ((7R)-3-((E)-2,4-dinitrostiryl)-7-(2-thienylacetamido)-3-cefem-4-carboxylic acid) was used which has the broadest spectrum of susceptibility and sensibility. The hydrolysis of nitrocefin in the presence of an inhibitor of the enzyme β-lactamase was determined.
# Hydrolysis of nitrocefin with β-lactamase of Escherichia coli 3.5.2.6 in the presence of inhibitors
row,SMILES,Inhibitory activity (%)
1,"C/C=C1/C(=O)N2C(C(=O)O)=C3CCSC[C@H]3[C@H]12 [compound A, sodium (8R,9R)-10-((E)-ethylidene)-11-oxo-1-aza-6-thiatricyclo[7.2.0.0^3,8]undec-2-ene-2-carboxylate]",38
2,"C/C=C1/C(=O)N2C(C(=O)[O-])=C3CCCC[C@@H]3[C@H]12.[Na+] [compound B, sodium (8S,9R)-10-((E)-ethylidene)-11-oxo-1-azatricyclo[7.2.0.0^3,8]undec-2-ene-2-carboxylate]",23
3,"CC1(C)[C@H](C(=O)O)N2C(=O)C[C@H]2S1(=O)=O [sulbactam, reference compound]",50
